In US9573913B2, “Cathepsin cysteine protease inhibitors” (Merck Sharp & Dohme Corp., priority 2013, dated 2017):

Columns and labels:
human cathepsin F = biological target: T1, human cathepsin F (Homo sapiens, UniProt Q9UBX1); assay: Cathepsin F assay (hCat F); type: biochemical; conditions: Z-Phe-Arg-AMC substrate, pH 5.5, 15 min preincubation; read-out: hCat F (IP (nM))
T1 sequence (Q9UBX1 271-484): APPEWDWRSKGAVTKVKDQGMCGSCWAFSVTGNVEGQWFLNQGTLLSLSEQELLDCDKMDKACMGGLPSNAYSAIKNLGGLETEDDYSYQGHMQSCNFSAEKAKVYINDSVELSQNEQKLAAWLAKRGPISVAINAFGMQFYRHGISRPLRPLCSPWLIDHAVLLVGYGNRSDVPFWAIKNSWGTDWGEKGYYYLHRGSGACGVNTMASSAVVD
Method in brief: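 Enzyme (10 nM) was preincubated 15 min at room temperature with compounds (1/3 DMSO dilution series, 500–0.025 μM) in 50 mM MES pH 5.5, 2.5 mM EDTA, 2.5 mM DTT, 10% DMSO. Z-Phe-Arg-AMC (8 μM) was added and AMC fluorescence (Ex 360/Em 460 nm) followed for 20 min. % inhibition was fitted to dose-response curves.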

human cathepsin K = human cathepsin K (UniProt P43236); assay: Cathepsin K Assay (hrbCat K); type: biochemical; conditions: Z-Leu-Arg-AMC substrate, pH 5.5, 15 min preincubation; read-out: hrbCat K (IP (nM))
Method in brief: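 Human cathepsin K (0.4 nM) was preincubated 15 min at room temperature with compound in 50 mM MES pH 5.5, 2.5 mM EDTA, 2.5 mM DTT and 10% DMSO. Inhibition was fitted to a dose-response model.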

| SMILES | IC50 (human cathepsin F) [nM] | IC50 (human cathepsin K) [nM] |
| --- | --- | --- |
| CS(=O)(=O)N1CCN(C(=O)c2ccc(-c3sc(-c4ccc(F)cc4)nc3[C@@H]3CCC(F)(F)C[C@H]3C(=O)NC3(C#N)CC3)cc2)CC1 [Example 29, (1R,2R)-N-(1-cyanocyclopropyl)-5,5-difluoro-2-(2-(4-fluorophenyl)-5-(4-(4-(methylsulfonyl)piperazine-1-carbonyl)phenyl)thi-azol-4-yl)cyclohexane-carboxamide] | 57 | 1.9 |
| CC(C)(C)c1nc([C@@H]2CC[C@H](F)C[C@H]2C(=O)NC2(C#N)CC2)c(-c2ccc(N3CCS(=O)(=O)CC3)cc2)s1 [Example 25, (1R,2R,5S)-2-(2-(tert-butyl)-5-(4-(1,1-dioxidothiomorpho-lino)phenyl)thiazol-4-yl)-N-(1-cyanocyclopropyl)-5-fluorocyclohexane-carboxamide] | 9260 | 3.3 |
| CN=S1(=O)CCN(c2ccc(-c3oc(C(C)(C)C)nc3[C@@H]3CC[C@H](F)C[C@H]3C(=O)N[C@H](C#N)C(C)C)cc2)CC1 [Example 174, (1R,2R,5S)-2-(2-(tert-butyl)-5-(4-(1-(methylimino)-1-oxidothiomorpholino)phenyl)oxazol-4-yl)-N-((S)-1-cyano-2-methylpropyl)-5-fluorocyclohexane-carboxamide] | ≥ 10000 | 31.3 |
| CC(C)C(C#N)NC(=O)[C@@H]1CCCC[C@H]1c1nc(-c2ccc(F)cn2)sc1-c1ccc(N2CCS(=O)(=O)CC2)cc1 (single isomer, unassigned) [Example 191, (1R,2R)-N-((R or S)-1-cyano-2-methylpropyl)-2-(5-(4-(1,1-dioxidothiomorpho-lino)phenyl)-2-(5-fluoropyridin-2-yl)thiazol-4-yl)cyclohexane-carboxamide] | 691 | 1.5 |
| C[C@H](C#N)NC(=O)[C@@H]1C[C@@H](F)CC[C@H]1c1nc(-c2ccc(F)cn2)sc1-c1ccc(N2CCS(=O)(=O)CC2)cc1 [Example 129, (1R,2R,5S)-N-((R)-1-cyanoethyl)-2-(5-(4-(1,1-dioxidothiomorpho-lino)phenyl)-2-(5-fluoropyridin-2-yl)thiazol-4-yl)-5-fluorocyclohexane-carboxamide] | ≥ 10000 | 25.5 |
| CN(c1nc([C@@H]2CCCC[C@H]2C(=O)NC2(C#N)CC2)c(-c2ccc(N3CCS(=O)(=O)CC3)cc2)s1)S(=O)(=O)c1ccccc1 [Example 201, (1R,2R)-N-(1-cyanocyclopropyl)-2-(5-(4-(1,1-dioxidothiomorpho-lino)phenyl)-2-(N-methylphenylsulfon-amido)thiazol-4-yl)cyclohexane-carboxamide] | 712 | 1.2 |
| CC(C)[C@@H](C#N)NC(=O)[C@@H]1C[C@@H](F)CC[C@H]1c1nc(C(C)(C)C)oc1-c1ccc(N2CCS(=O)(=O)CC2)cc1 [Example 170, (1R,2R,5S)-2-(2-(tert-butyl)-5-(4-(1,1-dioxidothiomorpho-lino)phenyl)oxazol-4-yl)-N-((S)-1-cyano-2-methylpropyl)-5-fluorocyclohexane-carboxamide] | ≥ 10000 | 12 |
| N#CC1(NC(=O)[C@@H]2CCCC[C@H]2c2nc(N3CCC(F)(F)CC3)sc2-c2ccc(N3CCS(=O)(=O)CC3)cc2)CC1 [Compound 6, (1R,2R)-N-(1-cyanocyclopropyl)-2-(2-(4,4-difluoropiperidin-1-yl)-5-(4-(1,1-dioxidothiomorpholino)phenyl)thiazol-4-yl)cyclohexanecarboxamide] | 1000 | 3.6 |
| Cc1nc([C@@H]2CC[C@H](F)C[C@H]2C(=O)N[C@@H](C)C#N)c(-c2ccc(N3CCC(S(C)(=O)=O)CC3)cc2)s1 [Example 244, (1R,2R,5S)-N-((S)-1-cyanoethyl)-5-fluoro-2-(2-methyl-5-(4-(4-(methylsulfonyl)piperidin-1-yl)phenyl)thiazol-4-yl)cyclohexane-carboxamide] | 7740 | 4.7 |
| N#CC1(NC(=O)[C@@H]2CCCC[C@H]2c2nc(-c3cccc(F)c3)sc2-c2ccc(N3CCS(=O)(=O)CC3)cc2)CC1 [Example 64, (1R,2R)-N-(1-cyanocyclopropyl)-2-(5-(4-(1,1-dioxidothiomorpho-lino)phenyl)-2-(3-fluorophenyl)thiazol-4-yl)cyclohexane-carboxamide] | 1330 | 1.4 |
| CC(C)(O)c1nc([C@@H]2CCCC[C@H]2C(=O)NC2(C#N)CC2)c(-c2ccc(N3CCS(=O)(=O)CC3)cc2)s1 [Example 208, (1R,2R)-N-(1-cyanocyclopropyl)-2-(5-(4-(1,1-dioxidothiomorpho-lino)phenyl)-2-(2-hydroxypropan-2-yl)thiazol-4-yl)cyclohexane-carboxamide] | ≥ 10000 | 7.9 |
| Cc1ncc(-c2nc([C@@H]3CCCC[C@H]3C(=O)NC3(C#N)CC3)c(-c3ccc(N4CCS(=O)(=O)CC4)cc3)s2)cn1 [Example 77, (1R,2R)-N-(1-cyanocyclopropyl)-2-(5-(4-(1,1-dioxidothiomorpho-lino)phenyl)-2-(2-methylpyrimidin-5-yl)thiazol-4-yl)cyclohexane-carboxamide] | 1870 | 1.6 |
| N#CC1(NC(=O)[C@@H]2CCCC[C@H]2c2nc(Nc3ccc(F)cc3)sc2-c2ccc(N3CCS(=O)(=O)CC3)cc2)CC1 [Example 180, (1R,2R)-N-(1-cyanocyclopropyl)-2-(5-(4-(1,1-dioxidothiomorpho-lino)phenyl)-2-((4-fluorophenyl)amino)thiazol-4-yl)cyclohexane-carboxamide] | 1000 | 43.3 |
| N#CC1(NC(=O)[C@@H]2CCC(Cl)(Cl)C[C@H]2c2nc(-c3ccc(F)cn3)sc2-c2ccc(N3CCS(=O)(=O)CC3)cc2)CC1 [Example 204, (1R,2R)-4,4-dichloro-N-(1-cyanocyclopropyl)-2-(5-(4-(1,1-dioxidothiomorpho-lino)phenyl)-2-(5-fluoropyridin-2-yl)thiazol-4-yl)cyclohexane-carboxamide] | 3330 | 88.2 |
| Cc1nc([C@@H]2CC[C@H](F)C[C@H]2C(=O)NC2(C#N)CC2)c(-c2ccc(N3CCOCC3)cc2)s1 [Compound 9, (1R,2R,5S)-N-(1-cyanocyclopropyl)-5-fluoro-2-(2-methyl-5-(4-morpholinophenyl)thiazol-4-yl)cyclohexanecarboxamide] | ≥ 10000 | 44.1 |
| CS(=O)(=O)c1ccc(-c2sc(-c3cncc(F)c3)nc2[C@@H]2CCCC[C@H]2C(=O)NC2(C#N)CC2)cc1 [Example 125, (1R,2R)-N-(1-cyanocyclopropyl)-2-(2-(5-fluoropyridin-3-yl)-5-(4-(methylsulfonyl)phenyl)thiazol-4-yl)cyclohexane-carboxamide] | 310 | 7.5 |
| N#CC1(NC(=O)[C@@H]2CCCC[C@H]2c2nc(-c3cnc(C4CC4)c(F)c3)sc2-c2ccc(N3CCS(=O)(=O)CC3)cc2)CC1 [Example 99, (1R,2R)-N-(1-cyanocyclopropyl)-2-(2-(6-cyclopropyl-5-fluoropyridin-3-yl)-5-(4-(1,1-dioxidothiomorpho-lino)phenyl)thiazol-4-yl)cyclohexane-carboxamide] | 3330 | 1.7 |
| N#CC1(NC(=O)[C@@H]2CCCC[C@H]2c2nc(Oc3ccccc3)sc2-c2ccc(N3CCS(=O)(=O)CC3)cc2)CC1 [Example 16, (1R,2R)-N-(1-Cyanocyclopropyl)-2-(5-(4-(1,1-dioxidothiomorpholino)phenyl)-2-phenoxythiazol-4-yl)cyclohexanecarboxamide] | 931 | 2.5 |
| N#CC1(NC(=O)[C@@H]2CCCC[C@H]2c2nc(-c3cnc(N)nc3)sc2-c2ccc(N3CCS(=O)(=O)CC3)cc2)CC1 [Example 71, (1R,2R)-2-(2-(2-aminopyrimidin-5-yl)-5-(4-(1,1-dioxidothiomorpho-lino)phenyl)thiazol-4-yl)-N-(1-cyanocyclopropyl) cyclohexanecarbox-amide] | 2320 | 2.3 |
| N#CC1(NC(=O)[C@@H]2CCCC[C@H]2c2nc(-c3cccnc3)sc2-c2ccc(N3CCS(=O)(=O)CC3)cc2)CC1 [Example 37, (1R,2R)-N-(1-cyanocyclopropyl)-2-(5-(4-(1,1-dioxidothiomorpho-lino)phenyl)-2-(pyridin-3-yl)thiazol-4-yl)cyclohexane-carboxamide] | 2620 | 0.5 |
| CC(C#N)NC(=O)[C@@H]1C[C@@H](F)CC[C@H]1c1nc(-c2cncc(F)c2)sc1-c1ccc(N2CCS(=O)(=O)CC2)cc1 (single isomer, unassigned) [Example 126, (1R,2R,5S)-N-((S or R)-1-cyanoethyl)-2-(5-(4-(1,1-dioxidothiomorpho-lino)phenyl)-2-(5-fluoropyridin-3-yl)thiazol-4-yl)-5-fluorocyclohexane-carboxamide] | 1760 | 1.7 |
| N#CC1(NC(=O)[C@@H]2CCCC[C@H]2c2nc(N3CCCC(F)(F)C3)sc2-c2ccc(N3CCS(=O)(=O)CC3)cc2)CC1 [Example 106, (1R,2R)-N-(1-cyanocyclopropyl)-2-(2-(3,3-difluoropiperidin-1-yl)-5-(4-(1,1-dioxidothiomorpho-lino)phenyl)thiazol-4-yl)cyclohexane-carboxamide] | ≥ 10000 | 2.9 |
